What was measured:
Assay type in all cases: in vivo
Myzus persicae [1] = assay: Myzus persicae spray test (Chinese cabbage leaf discs); conditions: foliar, 120 h, 500 g/ha, after 5-6 days, read-out: efficacy
Outline: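 Chinese cabbage leaf discs infested with all stages of green peach aphid were sprayed with compound formulated in acetone/DMF and emulsifier-containing water. Efficacy in % was scored after 5-6 days, with 100% meaning all aphids killed and 0% none killed.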

Phaedon cochleariae = Phaedon cochleariae spray test; conditions: foliar, 168 h, Chinese cabbage leaf discs, larvae, after 7 days, read-out: efficacy
Outline: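 Compound dissolved in solvent and diluted with water containing 1000 ppm emulsifier to test concentrations. Efficacy read after 7 days as % beetle larvae killed (100% all killed, 0% none).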

Lucilia cuprina = Lucilia cuprina test; conditions: 48 h, L1 larvae, after 2 days, read-out: efficacy (kill in %)
Experimental: Lucilia cuprina Test Solvent: dimethyl sulphoxide To produce a suitable preparation of active compound, 10 mg of active compound are mixed with 0.5 ml of dimethyl sulphoxide, and the concentrate is diluted with water to the desired concentration. About 20 L1 larvae of the Australian sheep blowfly (Lucilia cuprina) are transferred into a test vessel containing minced horsemeat and the active compound preparation of the desired concentration. After 2 days, the kill in % is determined. 100% means that all the larvae have been killed; 0% means that no larvae have been killed.

Myzus persicae [2] = assay: Myzus persicae oral test; conditions: 120 h, 20 ppm, oral uptake, after 5 days, read-out: efficacy
Outline: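 Compound dissolved in acetone, diluted in water, then mixed 50:150 μl with IPL41 insect medium (33%+15% sugar). Mixed-population green peach aphids feed through a parafilm seal on the solution; mortality scored as % efficacy after 5 days (100% = all killed).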

Meloidogyne incognita = Meloidogyne incognita test; conditions: 336 h, lettuce, after 14 days, read-out: nematicidal efficacy (formation of galls)
Outline: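 Active compound in acetone, diluted with water, added to sand-filled vessels with M. incognita eggs/larvae and lettuce seeds. After 14 days, efficacy scored by root gall formation: 100% = no galls, 0% = galls equal to untreated control.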

| SMILES | pest or weed control at 500 g/ha (Myzus persicae [1]) | pest or weed control at 500 g/ha (Phaedon cochleariae) | pest or weed control at 100 ppm (Lucilia cuprina) | pest or weed control at 20 ppm (Myzus persicae [2]) | pest or weed control at 20 ppm (Meloidogyne incognita) |
| --- | --- | --- | --- | --- | --- |
| CCc1ccccc1S(=O)(=O)NC(=O)c1cn(C)c(-c2ncccc2F)n1 [Example 572] | 100% | 83% | 100% | 100% |  |
| Cc1cccc(C)c1S(=O)(=O)NC(=O)c1cn(C)c(-c2cccc(Cl)c2Cl)n1 [Example 558] | 90% | 100% | 100% | 100% | 90% |
| CSc1ccccc1S(=O)(=O)NC(=O)c1cn(C)c(-c2c(F)cccc2F)n1 [Example 383] | 100% | 100% | 100% | 100% |  |
| CCc1cc(Br)ccc1S(=O)(=O)NC(=O)c1cn(C)c(-c2c(F)cccc2F)n1 [Example 341] | 90% | 100% | 100% | 100% | 100% |
| Cc1cccc(Cl)c1S(=O)(=O)NC(=O)c1cn(C)c(-c2c(F)cccc2F)n1 [Example 364] | 100% | 100% | 100% | 100% | 100% |
| Cn1cc(C(=O)NS(=O)(=O)c2c(Cl)cccc2Cl)nc1-c1c(F)cccc1Cl [Example 108] | 100% | 100% | 95% | 100% | 90% |
| Cc1ccc(Cl)cc1S(=O)(=O)NC(=O)c1cn(C)c(-c2ccccc2Cl)n1 [Example 37] | 90% | 100% | 100% | 100% | 100% |
| COc1ccc(Cl)c(S(=O)(=O)NC(=O)c2cn(C)c(-c3c(F)cccc3F)n2)c1 [Example 92] | 100% |  | 95% | 100% |  |
| COc1cc(S(=O)(=O)NC(=O)c2cn(C)c(-c3c(F)cccc3F)n2)c(C)cc1Br [Example 285] | 90% | 100% | 100% | 100% | 100% |
| Cc1ccccc1S(=O)(=O)NC(=O)c1cn(C)c(-c2c(F)cccc2F)n1 [Example 27] | 100% | 100% | 100% | 100% | 90% |
| Cn1cc(C(=O)NS(=O)(=O)c2ccccc2C(F)(F)F)nc1-c1c(F)cccc1Cl [Example 109] | 100% |  | 100% | 100% | 90% |
| Cc1ccccc1S(=O)(=O)NC(=O)c1cn(C)c(-c2ccccc2Cl)n1 [Example 54] | 100% |  | 100% | 100% | 100% |
| Cc1cccc(C)c1S(=O)(=O)NC(=O)c1cn(C)c(-c2ccccc2Cl)n1 [Example 218] | 100% | 100% | 100% | 100% | 90% |
| Cn1cc(C(=O)NS(=O)(=O)c2ccccc2Br)nc1-c1ccccc1Cl [Example 36] | 100% | 100% | 100% | 100% | 100% |
| Cn1cc(C(=O)NS(=O)(=O)c2ccccc2I)nc1-c1c(F)cccc1F [Example 120] | 100% | 100% | 100% | 100% | 90% |
| COc1ccc(Br)cc1S(=O)(=O)NC(=O)c1cn(C)c(-c2c(F)cccc2F)n1 [Example 18] | 100% | 100% | 100% | 100% | 90% |
| Cc1ccccc1S(=O)(=O)NC(=O)c1cn(C)c(-c2c(Cl)cccc2Cl)n1 [Example 25] | 100% |  | 100% | 100% |  |
| Cn1cc(C(=O)NS(=O)(=O)c2cc(Cl)ccc2Cl)nc1-c1ccccc1Cl [Example 56] | 100% | 100% | 100% | 100% | 90% |
| Cc1ccc(F)cc1S(=O)(=O)NC(=O)c1cn(C)c(-c2ncccc2Cl)n1 [Example 584] | 100% | 100% | 100% | 100% | 90% |
| Cn1cc(C(=O)NS(=O)(=O)c2c(Cl)cccc2Cl)nc1-c1c(Cl)cccc1Cl [Example 102] | 100% | 100% | 100% | 100% | 90% |
| CCc1cccc(C)c1S(=O)(=O)NC(=O)c1cn(C)c(-c2c(F)cccc2F)n1 [Example 336] | 90% | 100% | 95% | 100% | 100% |
| COc1ccc(C)c(S(=O)(=O)NC(=O)c2cn(C)c(-c3c(F)cccc3F)n2)c1 [Example 401] | 100% | 100% | 100% | 100% | 90% |
| Cc1ccc(F)cc1S(=O)(=O)NC(=O)c1cn(C)c(-c2c(F)cccc2F)n1 [Example 397] | 100% | 100% | 100% | 100% | 90% |
| Cc1ccccc1S(=O)(=O)NC(=O)c1cc(C)n(-c2ncccc2Cl)n1 [Example 274] | 100% |  | 95% | 100% | 90% |
| Cc1c(S(=O)(=O)NC(=O)c2cn(C)c(-c3c(F)cccc3F)n2)sc2ccc(Cl)cc12 [Example 324] | 100% | 100% |  | 100% | 90% |
| Cn1cc(C(=O)NS(=O)(=O)c2ccccc2C(F)(F)F)nc1-c1c(Cl)cccc1Cl [Example 23] | 100% | 100% | 100% | 100% |  |
| Cc1ccc(Cl)c(S(=O)(=O)NC(=O)c2cn(C)c(-c3c(F)cccc3F)n2)c1Cl [Example 434] | 100% | 100% |  | 100% | 100% |
| Cn1cc(C(=O)NS(=O)(=O)c2ccccc2Cl)nc1-c1ncccc1Cl [Example 539] | 90% |  | 100% | 100% |  |
